Assay results: paper PMC8911927, “Synthesis and Biological Evaluation of 1-(2-(6-Methoxynaphthalen-2-yl)-6-methylnicotinoyl)-4-Substituted Semicarbazides/Thiosemicarbazides as Anti-Tumor Nur77 Modulators” (Molecules, 2022)

Columns and labels:
HeLa cells = experiment: MTT cytotoxicity, HeLa; type: cell-based, human; details: 72 h, mean values
Description: (§1) All of the cell lines were obtained from the American Type Culture Collection (ATCC, Manassas, VA, USA) and grown in DMEM or RPMI culture medium containing 10% fetal bovine serum (v/v) in 5% CO2 at 37 °C.
(§2) Confluent cells in good state were cultured in 96-well plates (5–10 × 10^4 cells/mL). After cells were attached to the plate, compounds with various concentrations were applied at 37 °C for 72 h. Then, the cells were incubated with 10 μL of 5 mg/mL MTT reagent at 37 °C for 4 h. The supernatant was removed, and the cells were dissolved in 100 μL dimethyl sulfoxide and shaken for 5 min. Finally, the light absorption (OD) of the dissolved cells was measured at […].

HGC-27 cells [1] = experiment: MTT cytotoxicity, HGC-27; type: cell-based, human; details: 72 h, mean values
Description: as §1, §2

MCF-7 cells = experiment: MTT cytotoxicity, MCF-7; type: cell-based, human; details: mean values
Description: as §1, §2

HepG2 cells = experiment: MTT cytotoxicity, HepG2; type: cell-based; details: read-out: Cancer Cells IC50, HepG2
Description: (§3) All of the cell lines were obtained from the American Type Culture Collection (ATCC, Manassas, VA, USA) and grown in DMEM or RPMI culture medium containing 10% fetal bovine serum (v/v) in 5% CO2 at 37 °C. Confluent cells in good state were cultured in 96-well plates (5–10 × 10^4 cells/mL). After cells were attached to the plate, compounds with various concentrations were applied at 37 °C for 72 h. […] The supernatant was removed, and the cells were dissolved in 100 μL dimethyl sulfoxide and shaken for 5 min.

A549 cells = experiment: MTT cytotoxicity, A549; type: cell-based; details: read-out: Cancer Cells IC50, A549
Description: as §3

MDA-MB231 cells = experiment: MTT cytotoxicity, MDA-MB231; type: cell-based; details: read-out: Cancer Cells IC50, MDA-MB231
Description: as §3

H460 cells = experiment: MTT cytotoxicity, H460; type: cell-based; details: read-out: Cancer Cells IC50, H460
Description: as §3

A875 cells = experiment: MTT cytotoxicity, A875; type: cell-based; details: read-out: Cancer Cells IC50, A875
Description: as §3

MRC-5 cells = experiment: MTT cytotoxicity, MRC-5 normal cells; type: cell-based
Description: as §3

LO2 cells = experiment: MTT cytotoxicity, LO2 normal cells; type: cell-based
Description: as §3

HGC-27 cells [2] = experiment: Colony formation assay; type: cell-based, human; details: treatment for two weeks, 5 μM and 10 μM, dose-dependent
Description: HGC-27 cells were cultured in a six-well plate (500 cells/well) and treated with 9u and 9h in 10% serum medium for two weeks, then fixed with methanol at room temperature and stained with 0.1% crystal violet, and images were scanned with a scanner.

HGC-27 cells [3] = experiment: Flow cytometry cell cycle assay; type: cell-based, human; set-up: dose or concentration left out as unconfirmed; details: 8 h of treatment
Description: Flow cytometry analysis was applied for cell cycle detection. Firstly, HGC-27 cell was adjusted to 1 × 10^6/mL, inoculated into a six-well plate and placed in an incubator at 37 °C containing 5% CO2 saturated humidity overnight. After the cells were fully attached to the plate, […] 9u and 9h were administrated to the cells for 8 h. After cells were collected and fixed with 70% ethanol, DAPI was applied to stain the cells at the final concentration of 1 μg/mL; subsequently, on-board testing by flow cytometry (Cytoflex S (Beckman Coulter, Brea, CA, USA)) was conducted.

cleaved PARP = experiment: Western blot of cleaved PARP; type: cell-based, human; details: HGC-27 cells, different times and concentrations, 24 h
Description: Equal amounts of the lysates were electrophoresed on 10% SDS-PAGE gel and transferred onto PVDF membranes. After blocked with 5% nonfat milk in TBST (50 mM Tris-HCl (pH 7.4), 150 mM NaCl and 0.1% Tween 20) for 1 h, the membranes were incubated with various primary antibodies overnight and secondary antibodies for 3 h, finally detected using an ECL system. The blots were captured with ChemiDoc XRS+System (Bio-Rad, Hercules, CA, USA).

Row | Molecule | IC50 (HeLa cells) [µM] | IC50 (HGC-27 cells [1]) [µM] | IC50 (MCF-7 cells; 72 h) [µM] | further results
1 | 1-(2-(6-Methoxynaphthalen-2-yl)-6-methylnicotinoyl)-4-(4-methoxyphenyl)semicarbazide [Compound 9g] | 20.2 ± 0.31 | 19.4 ± 0.63 | 18.4 ± 0.21 | –
2 | 1-(2-(6-Methoxynaphthalen-2-yl)-6-methylnicotinoyl)-4-(4-methoxyphenyl)thiosemicarbazide [Compound 9t] | 10.1 ± 0.61 | 16.7 | 11.4 | –
3 | 1-(2-(6-Methoxynaphthalen-2-yl)-6-methylnicotinoyl)-4-m-tolylthiosemicarbazide [Compound 9r] | 20.2 ± 0.24 | 19.4 ± 0.11 | 18.4 ± 0.41 | –
4 | 1-(2-(6-Methoxynaphthalen-2-yl)-6-methylnicotinoyl)-4-o-tolylsemicarbazide [Compound 9d] | 20.7 ± 0.26 | 39.1 ± 0.72 | 35.2 ± 0.6 | –
5 | 1-(2-(6-Methoxynaphthalen-2-yl)-6-methylnicotinoyl)-4-o-tolylthiosemicarbazide [Compound 9q] | 14.2 ± 0.22 | 19.4 ± 0.69 | 23.3 ± 0.21 | –
6 | 1-(2-(6-Methoxynaphthalen-2-yl)-6-methylnicotinoyl)-4-p-tolylsemicarbazide [Compound 9f] | 24.2 ± 0.61 | 29.4 ± 0.31 | 23.3 ± 0.1 | –
7 | 1-(2-(6-Methoxynaphthalen-2-yl)-6-methylnicotinoyl)-4-p-tolylthiosemicarbazide [Compound 9s] | 16.12 ± 0.07 | 10.4 ± 0.19 | 19.3 ± 0.3 | –
8 | 1-(2-(6-Methoxynaphthalen-2-yl)-6-methylnicotinoyl)-4-phenethylthiosemicarbazide [Compound 9o] | 20.7 ± 0.22 | 39.12 ± 0.21 | 35.2 ± 0.09 | –
9 | 1-(2-(6-Methoxynaphthalen-2-yl)-6-methylnicotinoyl)-4-phenylthiosemicarbazide [Compound 9p] | 14.7 ± 0.31 | 19.24 ± 0.09 | 23.34 ± 0.21 | –
10 | 1-(2-(6-methoxynaphthalen-2-yl)-6-methylnicotinoyl)-4-m-tolylsemicarbazide [Compound 9e] | 24.65 ± 0.24 | 49.24 ± 0.26 | 33.34 ± 0.12 | –
11 | 4-(2,4-Difluorophenyl)-1-(2-(6-methoxynaphthalen-2-yl)-6-methylnicotinoyl)thiosemicarbazide [Compound 9v] | 10.1 ± 0.11 | 12.4 ± 0.25 | 11.6 ± 0.56 | –
12 | 4-(2-Chlorophenyl)-1-(2-(6-methoxynaphthalen-2-yl)-6-methylnicotinoyl)thiosemicarbazide [Compound 9u] | 6.1 ± 0.5 | 4.56 ± 0.09 | 6.44 ± 0.07 | IC50 (HepG2 cells): 7.2 ± 0.11 µM; IC50 (A549 cells): 11.2 ± 0.46 µM; IC50 (MDA-MB231 cells): 21 ± 0.01 µM; IC50 (H460 cells): 14 ± 0.38 µM; IC50 (A875 cells): 15.7 ± 0.11 µM; IC50 (MRC-5 cells): 22.1 ± 0.11 µM; IC50 (LO2 cells): 41 ± 0.7 µM; Colony formation of HGC-27 cells (HGC-27 cells [2]): completely inhibited colony formation; Effect on cell cycle (HGC-27 cells [3]): induced cell cycle blockage in G2-M phase; PARP cleavage (cleaved PARP): induce the PARP cleavage in a dose-dependent and time-dependent manner
13 | 4-(3,4-Dichlorophenyl)-1-(2-(6-methoxynaphthalen-2-yl)-6-methylnicotinoyl)semicarbazide [Compound 9k] | 10.1 ± 0.69 | 12.4 ± 0.5 | 11.6 ± 0.45 | –
14 | 4-(3,4-Dichlorophenyl)-1-(2-(6-methoxynaphthalen-2-yl)-6-methylnicotinoyl)thiosemicarbazide [Compound 9w] | 10.7 ± 0.34 | 16.4 ± 0.31 | 10.9 ± 0.42 | –
15 | 4-(3,5-Difluorophenyl)-1-(2-(6-methoxynaphthalen-2-yl)-6-methylnicotinoyl)semicarbazide [Compound 9j] | 12.1 ± 0.21 | 16.6 ± 0.44 | 16.3 ± 0.34 | –
16 | 4-(3,5-Dimethylphenyl)-1-(2-(6-methoxynaphthalen-2-yl)-6-methylnicotinoyl)semicarbazide [Compound 9i] | 20.1 ± 0.44 | 19.7 ± 0.31 | 21.4 ± 0.25 | –
17 | 4-Benzyl-1-(2-(6-methoxynaphthalen-2-yl)-6-methylnicotinoyl)semicarbazide [Compound 9c] | 25.3 ± 0.45 | 23.16 ± 0.2 | 21.1 ± 0.52 | –
18 | 4-Benzyl-1-(2-(6-methoxynaphthalen-2-yl)-6-methylnicotinoyl)thiosemicarbazide [Compound 9n] | 25.33 ± 0.1 | 23.16 ± 0.07 | 21.1 ± 0.32 | –
19 | 4-Cyclohexyl-1-(2-(6-methoxynaphthalen-2-yl)-6-methylnicotinoyl)thiosemicarbazide [Compound 9m] | 34.5 ± 0.37 | 30.2 ± 0.61 | 35.4 ± 0.41 | –
20 | 4-Cyclopentyl-1-(2-(6-methoxynaphthalen-2-yl)-6-methylnicotinoyl)semicarbazide [Compound 9a] | 88.39 ± 0.22 | 38.39 ± 0.32 | 60.26 ± 0.11 | –
21 | N.N.[Cl][Pt][Cl] [Cisplatin, reference compound] | 12.45 ± 0.11 | 8.9 ± 0.2 | 10.5 ± 0.31 | IC50 (HepG2 cells): 15.2 ± 0.29 µM; IC50 (A549 cells): 9.3 ± 0.11 µM; IC50 (MDA-MB231 cells): 20.2 ± 0.25 µM; IC50 (H460 cells): 16.6 ± 0.09 µM; IC50 (A875 cells): 21.2 ± 0.08 µM; IC50 (MRC-5 cells): > 50 µM; IC50 (LO2 cells): > 50 µM
22 | COc1ccc2cc(-c3ccc(C(=O)NNC(=O)NC4CCCCC4)c(C)n3)ccc2c1 [Compound 9b] | – | – | – | IC50 (HeLa cells; Homo sapiens): 30.5 ± 0.4 µM; IC50 (HGC-27 cells [1]; Homo sapiens): 50.26 ± 0.2 µM; IC50 (MCF-7 cells; Homo sapiens, MCF7, 72 h): 41.5 ± 0.78 µM; melting point: 236 to 237 °C
23 | CCCCCCNC(=S)NNC(=O)c1ccc(C)nc1-c1ccc2cc(OC)ccc2c1 [Compound 9l, 4-Hexyl-1-(2-(6-methoxynaphthalen-2-yl)-6-methylnicotinoyl)thiosemicarbazide] | – | – | – | IC50 (HeLa cells; Homo sapiens): 45.4 ± 0.11 µM; IC50 (HGC-27 cells [1]; Homo sapiens): 38.1 ± 0.21 µM; IC50 (MCF-7 cells; Homo sapiens, MCF7, 72 h): 40.2 ± 0.33 µM; melting point: 195 to 196 °C
